Test results from patent publication US8802597B2, “Herbicidal pyrimidines” (E I du Pont de Nemours and Company, priority 2003, dated 2014).
Read-outs that look alike come from different tables or passages of the source.

Legend:
Type in all cases: in vivo
[1] = system: chickweed (Stellaria media); assay: Test C postemergence; details: Stellaria media, post-emergence
Method in brief: (§1)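 Seeds sown and sprayed preemergence with test compound in non-phytotoxic solvent containing surfactant; postemergence sprays, same formulation, went onto plants 2 to 18 cm tall (1- to 4-leaf stage). Plants held in greenhouse 12 to 14 days, then visually rated against untreated controls on a 0–100 scale (0 no effect, 100 complete control).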

[2] = system: common (oilseed) sunflower (Helianthus annuus); assay: Test C pre/postemergence; details: Preemergence, scale 0 to 100, 0 no effect, 100 complete control
Method in brief: as §1

[3] = system: Surinam grass (Brachiaria decumbens); assay: Test C pre/postemergence; details: for pest or weed control at 16 g/ha: 16 g ai/ha
Method in brief: as §1

kochia (Kochia scoparia) = assay: Test C pre/postemergence; details: for pest or weed control at 31 g/ha: 31 g ai/ha
Method in brief: as §1

[4] = system: woolly cupgrass (Eriochloa villosa); assay: Test C pre/postemergence; details: for pest or weed control at 16 g/ha: 16 g ai/ha
Method in brief: as §1

soybean (Glycine max) = assay: Test C pre/postemergence; details: for Plant response rating, Soybean: Preemergence, scale 0 to 100, 0 no effect, 100 complete control
Method in brief: as §1

[5] = system: pigweed (Amaranthus retroflexus); assay: Test C pre/postemergence; details: for pest or weed control at 16 g/ha: 16 g ai/ha
Method in brief: as §1

[6] = system: yellow nutsedge (Cyperus esculentus); assay: Test C pre/postemergence; details: for pest or weed control at 16 g/ha: 16 g ai/ha
Method in brief: as §1

[7] = system: common ragweed (Ambrosia elatior); assay: Test C pre/postemergence; details: for Plant response rating, Ragweed: Preemergence, scale 0 to 100, 0 no effect, 100 complete control
Method in brief: as §1

[8] = system: johnsongrass (Sorghum halepense); assay: Test C pre/postemergence; details: for pest or weed control at 16 g/ha: 16 g ai/ha
Method in brief: as §1

[9] = system: morningglory (Ipomoea coccinea); assay: Test C pre/postemergence; details: for Plant response rating, Morningglory: Preemergence
Method in brief: as §1

[10] = system: giant foxtail (Setaria faberii); assay: Test C pre/postemergence; details: for pest or weed control at 16 g/ha: 16 g ai/ha
Method in brief: as §1

[11] = Preemergence, 31 g ai/ha, scale 0 to 100, 0 no effect, 100 complete control
[12] = Preemergence, 62 g ai/ha, scale 0 to 100, 0 no effect, 100 complete control
[13] = Preemergence, 125 g ai/ha, scale 0 to 100

## Nc1nc(C2CC2)nc(C(=O)O)c1Cl [Compound 135, 6-amino-5-chloro-2-cyclopropyl-4-pyrimidinecarboxylic acid]
[1]; 16 g ai/ha, read-out: Plant response rating (scale of 0 to 100), Chickweed
  pest or weed control at 16 g/ha: 0%
[1]; 31 g ai/ha, read-out: Plant response rating (scale of 0 to 100), Chickweed
  pest or weed control at 31 g/ha: 15%
[1]; 62 g ai/ha, read-out: Plant response rating (scale of 0 to 100), Chickweed
  pest or weed control at 62 g/ha: 25%
[1]; 125 g ai/ha, scale 0 to 100 (0 no effect, 100 complete control), read-out: Chickweed plant response rating
  pest or weed control at 125 g/ha: 85%
[2]; 16 g ai/ha
  Plant response rating, Sunflower: 65
[2]; 31 g ai/ha
  Plant response rating, Sunflower: 70
[2]; 62 g ai/ha
  Plant response rating, Sunflower: 90
[3]; [11]
  Plant response rating, Surinam Grass: 0
[3]; [12]
  Plant response rating, Surinam Grass: 0
[3]; Urochloa decumbens, post-emergence, Postemergence, 125 g ai/ha, scale 0 to 100 (0 no effect, 100 complete control), read-out: Surinam Grass plant response rating
  pest or weed control at 125 g/ha: 60%
[3]; Urochloa decumbens, post-emergence, Postemergence, read-out: Plant response rating (scale of 0 to 100), Surinam Grass
  pest or weed control at 16 g/ha: 45%
[3]; Urochloa decumbens, post-emergence, Postemergence, 31 g ai/ha, read-out: Plant response rating (scale of 0 to 100), Surinam Grass
  pest or weed control at 31 g/ha: 50%
[3]; Urochloa decumbens, post-emergence, Postemergence, 62 g ai/ha, read-out: Plant response rating (scale of 0 to 100), Surinam Grass
  pest or weed control at 62 g/ha: 60%
[3]; Urochloa decumbens, pre-emergence, Preemergence, scale 0 to 100, 0 no effect, 100 complete control, read-out: Plant response rating, Surinam Grass
  pest or weed control at 16 g/ha: 0%
Kochia (Kochia scoparia); Bassia scoparia, post-emergence, Postemergence, 16 g ai/ha, read-out: Plant response rating (scale of 0 to 100), Kochia
  pest or weed control at 16 g/ha: 75%
Kochia (Kochia scoparia); Bassia scoparia, post-emergence, Postemergence, read-out: Plant response rating (scale of 0 to 100), Kochia
  pest or weed control at 31 g/ha: 90%
Kochia (Kochia scoparia); Bassia scoparia, post-emergence, Postemergence, 62 g ai/ha, read-out: Plant response rating (scale of 0 to 100), Kochia
  pest or weed control at 62 g/ha: 90%
Kochia (Kochia scoparia); Bassia scoparia, post-emergence, Postemergence, 125 g ai/ha, scale 0 to 100 (0 no effect, 100 complete control), read-out: Kochia plant response rating
  pest or weed control at 125 g/ha: 95%
Kochia (Kochia scoparia); Bassia scoparia, pre-emergence, Preemergence, scale 0 to 100, 0 no effect, 100 complete control, read-out: Plant response rating, Kochia
  pest or weed control at 31 g/ha: 75%
Kochia (Kochia scoparia); Preemergence, 16 g ai/ha, scale 0 to 100, 0 no effect, 100 complete control
  Plant response rating, Kochia: 60
Kochia (Kochia scoparia); [12]
  Plant response rating, Kochia: 75
Kochia (Kochia scoparia); [13]
  Plant response rating, Kochia: 100
[4]; Eriochloa villosa, post-emergence, Postemergence, read-out: Plant response rating (scale of 0 to 100), Cupgrass, Woolly
  pest or weed control at 16 g/ha: 30%
[4]; Eriochloa villosa, post-emergence, Postemergence, 31 g ai/ha, read-out: Plant response rating (scale of 0 to 100), Cupgrass, Woolly
  pest or weed control at 31 g/ha: 60%
[4]; Eriochloa villosa, post-emergence, Postemergence, 62 g ai/ha, read-out: Plant response rating (scale of 0 to 100), Cupgrass, Woolly
  pest or weed control at 62 g/ha: 60%
[4]; Eriochloa villosa, post-emergence, Postemergence, 125 g ai/ha, scale 0 to 100 (0 no effect, 100 complete control), read-out: Cupgrass, Woolly plant response rating
  pest or weed control at 125 g/ha: 80%
[4]; Eriochloa villosa, pre-emergence, Preemergence, scale 0 to 100, 0 no effect, 100 complete control, read-out: Plant response rating, Cupgrass, Woolly
  pest or weed control at 16 g/ha: 0%
[4]; [11]
  Plant response rating, Cupgrass, Woolly: 0
[4]; [12]
  Plant response rating, Cupgrass, Woolly: 0
[4]; [13]
  Plant response rating, Cupgrass, Woolly: 0
Soybean (Glycine max); Glycine max, post-emergence, Postemergence, 16 g ai/ha, read-out: Plant response rating (scale of 0 to 100), Soybean
  plant injury at 16 g/ha: 100%
Soybean (Glycine max); Glycine max, post-emergence, Postemergence, 62 g ai/ha, read-out: Plant response rating (scale of 0 to 100), Soybean
  plant injury at 62 g/ha: 100%
Soybean (Glycine max); Glycine max, post-emergence, Postemergence, 125 g ai/ha, scale 0 to 100 (0 no effect, 100 complete control), read-out: Soybean plant response rating
  plant injury at 125 g/ha: 100%
Soybean (Glycine max); 16 g ai/ha
  Plant response rating, Soybean: 85
Soybean (Glycine max); 31 g ai/ha
  Plant response rating, Soybean: 95
Soybean (Glycine max); 62 g ai/ha
  Plant response rating, Soybean: 95
[5]; Amaranthus retroflexus, post-emergence, Postemergence, read-out: Plant response rating (scale of 0 to 100), Pigweed
  pest or weed control at 16 g/ha: 85%
[5]; Amaranthus retroflexus, post-emergence, Postemergence, 31 g ai/ha, read-out: Plant response rating (scale of 0 to 100), Pigweed
  pest or weed control at 31 g/ha: 95%
[5]; Amaranthus retroflexus, post-emergence, Postemergence, 62 g ai/ha, read-out: Plant response rating (scale of 0 to 100), Pigweed
  pest or weed control at 62 g/ha: 100%
[5]; Amaranthus retroflexus, post-emergence, Postemergence, 125 g ai/ha, scale 0 to 100 (0 no effect, 100 complete control), read-out: Pigweed plant response rating
  pest or weed control at 125 g/ha: 100%
[5]; Amaranthus retroflexus, pre-emergence, Preemergence, scale 0 to 100, 0 no effect, 100 complete control, read-out: Plant response rating, Pigweed
  pest or weed control at 16 g/ha: 70%
[5]; [11]
  Plant response rating, Pigweed: 70
[5]; [12]
  Plant response rating, Pigweed: 80
[6]; Cyperus, post-emergence, Postemergence, read-out: Plant response rating (scale of 0 to 100), Nutsedge, Yellow
  pest or weed control at 16 g/ha: 0%
[6]; Cyperus, post-emergence, Postemergence, 31 g ai/ha, read-out: Plant response rating (scale of 0 to 100), Nutsedge, Yellow
  pest or weed control at 31 g/ha: 0%
[6]; Cyperus, post-emergence, Postemergence, 62 g ai/ha, read-out: Plant response rating (scale of 0 to 100), Nutsedge, Yellow
  pest or weed control at 62 g/ha: 15%
[6]; Cyperus, post-emergence, Postemergence, 125 g ai/ha, scale 0 to 100 (0 no effect, 100 complete control), read-out: Nutsedge, Yellow plant response rating
  pest or weed control at 125 g/ha: 40%
[6]; Cyperus, pre-emergence, Preemergence, scale 0 to 100, 0 no effect, 100 complete control, read-out: Plant response rating, Nutsedge, Yellow
  pest or weed control at 16 g/ha: 0%
[6]; [11]
  Plant response rating, Nutsedge, Yellow: 0
[6]; [12]
  Plant response rating, Nutsedge, Yellow: 0
[7]; Ambrosia artemisiifolia, post-emergence, Postemergence, 16 g ai/ha, read-out: Plant response rating (scale of 0 to 100), Ragweed
  pest or weed control at 16 g/ha: 75%
[7]; Ambrosia artemisiifolia, post-emergence, Postemergence, 31 g ai/ha, read-out: Plant response rating (scale of 0 to 100), Ragweed
  pest or weed control at 31 g/ha: 80%
[7]; Ambrosia artemisiifolia, post-emergence, Postemergence, 62 g ai/ha, read-out: Plant response rating (scale of 0 to 100), Ragweed
  pest or weed control at 62 g/ha: 85%
[7]; Ambrosia artemisiifolia, post-emergence, Postemergence, 125 g ai/ha, scale 0 to 100 (0 no effect, 100 complete control), read-out: Ragweed plant response rating
  pest or weed control at 125 g/ha: 95%
[7]; 16 g ai/ha
  Plant response rating, Ragweed: 5
[7]; 62 g ai/ha
  Plant response rating, Ragweed: 35
[7]
  Plant response rating, Ragweed: 70
[8]; [11]
  Plant response rating, Johnsongrass: 0
[8]; [12]
  Plant response rating, Johnsongrass: 5
[8]; [13]
  Plant response rating, Johnsongrass: 40
[8]; Sorghum halepense, post-emergence, Postemergence, read-out: Plant response rating (scale of 0 to 100), Johnsongrass
  pest or weed control at 16 g/ha: 15%
[8]; Sorghum halepense, post-emergence, Postemergence, 31 g ai/ha, read-out: Plant response rating (scale of 0 to 100), Johnsongrass
  pest or weed control at 31 g/ha: 35%
[8]; Sorghum halepense, post-emergence, Postemergence, 62 g ai/ha, read-out: Plant response rating (scale of 0 to 100), Johnsongrass
  pest or weed control at 62 g/ha: 65%
[8]; Sorghum halepense, post-emergence, Postemergence, 125 g ai/ha, scale 0 to 100 (0 no effect, 100 complete control), read-out: Johnsongrass plant response rating
  pest or weed control at 125 g/ha: 70%
[8]; Sorghum halepense, pre-emergence, Preemergence, scale 0 to 100, 0 no effect, 100 complete control, read-out: Plant response rating, Johnsongrass
  pest or weed control at 16 g/ha: 0%
[9]; Ipomoea, post-emergence, Postemergence, 16 g ai/ha, read-out: Plant response rating (scale of 0 to 100), Morningglory
  pest or weed control at 16 g/ha: 80%
[9]; Ipomoea, post-emergence, Postemergence, 31 g ai/ha, read-out: Plant response rating (scale of 0 to 100), Morningglory
  pest or weed control at 31 g/ha: 90%
[9]; Ipomoea, post-emergence, Postemergence, 62 g ai/ha, read-out: Plant response rating (scale of 0 to 100), Morningglory
  pest or weed control at 62 g/ha: 95%
[9]; Ipomoea, post-emergence, Postemergence, 125 g ai/ha, scale 0 to 100 (0 no effect, 100 complete control), read-out: Morningglory plant response rating
  pest or weed control at 125 g/ha: 95%
[9]; 16 g ai/ha, scale 0 to 100, 0 no effect, 100 complete control
  Plant response rating, Morningglory: 85
[9]; 31 g ai/ha, scale 0 to 100, 0 no effect, 100 complete control
  Plant response rating, Morningglory: 90
[9]; 62 g ai/ha, scale 0 to 100, 0 no effect, 100 complete control
  Plant response rating, Morningglory: 90
[9]; 125 g ai/ha, scale 0 to 100
  Plant response rating, Morningglory: 100
[10]; [11]
  Plant response rating, Foxtail, Giant: 0
[10]; [12]
  Plant response rating, Foxtail, Giant: 0
[10]; [13]
  Plant response rating, Foxtail, Giant: 0
[10]; Setaria faberi, post-emergence, Postemergence, 125 g ai/ha, scale 0 to 100 (0 no effect, 100 complete control), read-out: Foxtail, Giant plant response rating
  pest or weed control at 125 g/ha: 75%
[10]; Setaria faberi, post-emergence, Postemergence, read-out: Plant response rating (scale of 0 to 100), Foxtail, Giant
  pest or weed control at 16 g/ha: 10%
[10]; Setaria faberi, post-emergence, Postemergence, 31 g ai/ha, read-out: Plant response rating (scale of 0 to 100), Foxtail, Giant
  pest or weed control at 31 g/ha: 60%
[10]; Setaria faberi, post-emergence, Postemergence, 62 g ai/ha, read-out: Plant response rating (scale of 0 to 100), Foxtail, Giant
  pest or weed control at 62 g/ha: 65%
[10]; Setaria faberi, pre-emergence, Preemergence, scale 0 to 100, 0 no effect, 100 complete control, read-out: Plant response rating, Foxtail, Giant
  pest or weed control at 16 g/ha: 0%
